In brackets after ≈: the same amount, converted by molar mass. Where two headings read alike, the source gives them in different places.
Legend:
Test in all cases: In vitro anti-bacterial activity test (MIC, two-fold dilution method) against the standard strains
Type in all cases: cell-based
[1] = system: Pseudomonas aeruginosa 1592 E; details: Table 1 strain 13: Pseudomonas aeruginosa 1592 E
[2] = system: Pseudomonas aeruginosa 1771; details: Table 1 strain 14: Pseudomonas aeruginosa 1771
[3] = system: Klebsiella aerogenes 1082 E; details: Table 1 strain 17: Klebsiella aerogenes 1082 E
[4] = system: Staphylococcus aureus 503; details: Table 1 strain 6: Staphylococcus aureus 503; read-out: MIC
Escherichia coli OTEM = details: Table 1 strain 10: Escherichia coli OTEM
[5] = system: Klebsiella aerogenes 1522 E; details: Table 1 strain 18: Klebsiella aerogenes 1522 E
[6] = system: Enterobacter cloacae 1321 E; details: Table 1 strain 20: Enterobacter cloacae 1321 E
Salmonella typhimurium = details: Salmonella enterica; Table 1 strain 16: Salmonella typhimurium
[7] = system: Streptococcus faecium MD 8b; details: Enterococcus faecium, MD8B; Table 1 strain 3: Streptococcus faecium MD 8b; read-out: MIC
[8] = system: Staphylococcus aureus 285; details: Table 1 strain 5: Staphylococcus aureus 285; read-out: MIC
[9] = system: Staphylococcus aureus SG 511; details: SG511; Table 1 strain 4: Staphylococcus aureus SG 511
[10] = system: Streptococcus pyogenes 77 A; details: Table 1 strain 2: Streptococcus pyogenes 77 A; read-out: MIC
Escherichia coli DC 0 [11] = details: DC0; Table 1 strain 8: Escherichia coli DC 0
Escherichia coli 1507 E = details: Table 1 strain 11: Escherichia coli 1507 E
Escherichia coli DC 2 = details: DC2
[12] = system: Enterobacter cloacae P 99; details: P99; Table 1 strain 19: Enterobacter cloacae P 99
Escherichia coli DC 0 [13] = details: DC0; Table 1 strain 7: Escherichia coli DC 0
[14] = system: Streptococcus pyogenes 308 A; details: Table 1 strain 1: Streptococcus pyogenes 308 A
[15] = system: Pseudomonas aeruginosa 9027; details: Table 1 strain 12: Pseudomonas aeruginosa 9027
[16] = system: Pseudomonas aeruginosa 1771 M; details: Table 1 strain 15: Pseudomonas aeruginosa 1771 M
[17] = Table 1 strain 9: Escherichia coli DC 2, read-out: MIC

SMILES | MIC [1] [µg/mL] | MIC [2] [µg/mL] | MIC [3] [µg/mL] | MIC [4] [µg/mL] | MIC (Escherichia coli OTEM) [µg/mL] | MIC [5] [µg/mL] | MIC [6] [µg/mL] | MIC (Salmonella typhimurium) [µg/mL] | MIC [7] [µg/mL] | MIC [8] [µg/mL] | MIC [9] [µg/mL] | MIC [10] [µg/mL] | MIC (Escherichia coli DC 0 [11]) [µg/mL] | MIC (Escherichia coli 1507 E) [µg/mL] | MIC [12] [µg/mL] | MIC (Escherichia coli DC 0 [13]) [µg/mL] | MIC [14] [µg/mL] | MIC [15] [µg/mL] | MIC [16] [µg/mL] | MIC (Escherichia coli DC 2; [17]) [µg/mL] | further results
CC(O)C(=O)O.NC1CC12CCN(c1c(F)cc3c(=O)c(C(=O)O)cn(C4CC4)c3c1Cl)C2 (centres unmarked) [Example 4, 7-(1-amino-5-azaspiro[2,4]heptane-5-yl)-8-chloro-1-cyclopropyl-6-fluoro-1,4-dihydro-4-oxoquinoline-3-carboxylic acid lactate] | 0.781 | 0.781 | < 0.002 | 0.013 | 0.025 | 0.025 | 0.007 | 0.025 | 0.098 | 0.025 | 0.025 | 0.049 | 0.098 | 0.025 | 0.025 | 0.007 | 0.098 | 0.781 | 0.195 |  | MIC (Escherichia coli DC 2; Escherichia coli): 0.049 µg/mL
NC1CC12CCN(c1cc3c(cc1F)c(=O)c(C(=O)O)cn3C1CC1)C2 (centres unmarked) [Example 5, 7-(1-amino-5-azaspiro[2,4]heptane-5-yl)-1-cyclopropyl-6-fluoro-1,4-dihydro-4-oxoquinoline-3-carboxylic acid] | 1.56 (≈ 4.37 µM) | 1.56 (≈ 4.37 µM) | 0.004 (≈ 0.0112 µM) | 0.098 (≈ 0.274 µM) | 0.049 (≈ 0.137 µM) | 0.049 (≈ 0.137 µM) | 0.025 (≈ 0.07 µM) | 0.049 (≈ 0.137 µM) | 0.195 (≈ 0.546 µM) | 0.098 (≈ 0.274 µM) | 0.098 (≈ 0.274 µM) | 0.391 (≈ 1.09 µM) | 0.781 (≈ 2.19 µM) | 0.098 (≈ 0.274 µM) | 0.049 (≈ 0.137 µM) | 0.025 (≈ 0.07 µM) | 0.391 (≈ 1.09 µM) | 1.56 (≈ 4.37 µM) | 0.391 (≈ 1.09 µM) | 0.098 (≈ 0.274 µM) | 
NC1CC12CCN(c1nc3c(cc1F)c(=O)c(C(=O)O)cn3C1CC1)C2 (centres unmarked) [Example 6, 7-(1-amino-5-azaspiro[2,4]heptane-5-yl)-1-cyclopropyl-6-fluoro-4-oxo-1,4-dihydro-1,8-naphthyridine-3-carboxylic acid] | 1.56 (≈ 4.36 µM) | 1.56 (≈ 4.36 µM) | 0.391 (≈ 1.09 µM) | 0.049 (≈ 0.137 µM) | 0.025 (≈ 0.0698 µM) | 0.025 (≈ 0.0698 µM) | < 0.002 | 0.025 (≈ 0.0698 µM) | 0.195 (≈ 0.544 µM) | 0.049 (≈ 0.137 µM) | 0.049 (≈ 0.137 µM) | 0.195 (≈ 0.544 µM) | 0.391 (≈ 1.09 µM) | 0.025 (≈ 0.0698 µM) | 0.007 (≈ 0.0195 µM) | < 0.002 | 0.391 (≈ 1.09 µM) | 1.56 (≈ 4.36 µM) | 0.195 (≈ 0.544 µM) | 0.098 (≈ 0.273 µM) | 
CNC1CC12CCN(c1c(F)cc3c(=O)c(C(=O)O)cn4c3c1OC[C@@H]4C)C2 (stereo partly drawn) [Example 10, 9-fluoro-3-(S)-methyl-10-(1-methylamino-5-azaspiro[2,4]heptane-5-yl)-7-oxo-2,3-dihydro-7H-pyrido-[1,2,3-de]-1,4-benzoxazine-6-carboxylic acid] | 1.56 (≈ 4.03 µM) | 1.56 (≈ 4.03 µM) | 0.007 (≈ 0.0181 µM) | 0.049 (≈ 0.126 µM) | 0.049 (≈ 0.126 µM) | 0.098 (≈ 0.253 µM) | 0.025 (≈ 0.0645 µM) | 0.049 (≈ 0.126 µM) | 0.195 (≈ 0.503 µM) | 0.049 (≈ 0.126 µM) | 0.049 (≈ 0.126 µM) | 0.195 (≈ 0.503 µM) | 0.391 (≈ 1.01 µM) | 0.098 (≈ 0.253 µM) | 0.049 (≈ 0.126 µM) | 0.025 (≈ 0.0645 µM) | 0.391 (≈ 1.01 µM) | 1.56 (≈ 4.03 µM) | 0.781 (≈ 2.02 µM) | 0.049 (≈ 0.126 µM) | 
CNC1CC12CCN(c1cc3c(cc1F)c(=O)c(C(=O)O)cn3C1CC1)C2 (centres unmarked) [Example 11, 7-(1-methylamino-5-azaspiro[2,4]heptane-5-yl)-1-cyclopropyl-6-fluoro-1,4-dihydro-4-oxoquinoline-3-carboxylic acid] | 3.12 (≈ 8.41 µM) | 3.12 (≈ 8.41 µM) | 0.004 (≈ 0.0108 µM) | 0.098 (≈ 0.264 µM) | 0.098 (≈ 0.264 µM) | 0.098 (≈ 0.264 µM) | 0.049 (≈ 0.132 µM) | 0.098 (≈ 0.264 µM) | 0.781 (≈ 2.1 µM) | 0.098 (≈ 0.264 µM) | 0.098 (≈ 0.264 µM) | 0.781 (≈ 2.1 µM) | 1.56 (≈ 4.21 µM) | 0.098 (≈ 0.264 µM) | 0.098 (≈ 0.264 µM) | 0.049 (≈ 0.132 µM) | 0.781 (≈ 2.1 µM) | 3.12 (≈ 8.41 µM) | 0.781 (≈ 2.1 µM) | 0.195 (≈ 0.525 µM) | 
CNC1CC12CCN(c1c(F)c(N)c3c(=O)c(C(=O)O)cn(C4CC4)c3c1F)C2 (centres unmarked) [Example 12, 7-(1-methylamino-5-azaspiro[2,4]heptane-5-yl)-1-cyclopropyl-5-amino-6,8-difluoro-1,4-dihydro-4-oxoquinoline-3-carboxylic acid] | 3.12 (≈ 7.73 µM) | 1.56 (≈ 3.86 µM) | < 0.002 | 0.025 (≈ 0.0618 µM) | 0.049 (≈ 0.121 µM) | 0.098 (≈ 0.242 µM) | 0.025 (≈ 0.0618 µM) | 0.049 (≈ 0.121 µM) | 0.195 (≈ 0.482 µM) | 0.025 (≈ 0.0618 µM) | 0.025 (≈ 0.0618 µM) | 0.195 (≈ 0.482 µM) | 0.391 (≈ 0.967 µM) | 0.049 (≈ 0.121 µM) | 0.049 (≈ 0.121 µM) | 0.025 (≈ 0.0618 µM) | 0.195 (≈ 0.482 µM) | 3.12 (≈ 7.73 µM) | 0.391 (≈ 0.967 µM) | 0.195 (≈ 0.482 µM) | 
C[C@H]1COc2c(N3CCC4(CC4C(=O)O)C3)c(F)cc3c(=O)c(C(=O)O)cn1c23 (some centres unmarked) [Example 14] | 6.25 (≈ 15.5 µM) | 12.5 (≈ 31.1 µM) | 0.098 (≈ 0.244 µM) | 0.098 (≈ 0.244 µM) | 0.391 (≈ 0.972 µM) | 1.56 (≈ 3.88 µM) | 0.195 (≈ 0.485 µM) | 0.781 (≈ 1.94 µM) | 1.56 (≈ 3.88 µM) | 0.098 (≈ 0.244 µM) | 0.098 (≈ 0.244 µM) | 1.56 (≈ 3.88 µM) | 6.25 (≈ 15.5 µM) | 0.781 (≈ 1.94 µM) | 0.391 (≈ 0.972 µM) | 0.195 (≈ 0.485 µM) | 3.12 (≈ 7.77 µM) | 12.5 (≈ 31.1 µM) | 1.56 (≈ 3.88 µM) | 0.391 (≈ 0.972 µM) | 
NCC1CC12CCN(c1c(F)cc3c(=O)c(C(=O)O)cn(C4CC4)c3c1F)C2 (centres unmarked) [Example 15] | 1.56 (≈ 4.01 µM) | 1.56 (≈ 4.01 µM) | 0.025 (≈ 0.0642 µM) | 0.195 (≈ 0.501 µM) | 0.098 (≈ 0.252 µM) | 0.195 (≈ 0.501 µM) | 0.049 (≈ 0.126 µM) | 0.098 (≈ 0.252 µM) | 0.391 (≈ 1 µM) | 0.195 (≈ 0.501 µM) | 0.098 (≈ 0.252 µM) | 0.195 (≈ 0.501 µM) | 0.781 (≈ 2.01 µM) | 0.098 (≈ 0.252 µM) | 0.195 (≈ 0.501 µM) | 0.049 (≈ 0.126 µM) | 0.781 (≈ 2.01 µM) | 1.56 (≈ 4.01 µM) | 0.391 (≈ 1 µM) | 0.098 (≈ 0.252 µM) | 
NC1CC12CCCN(c1c(F)cc3c(=O)c(C(=O)O)cn(C4CC4)c3c1F)C2 (centres unmarked) [Example 16, 7-(1-amino-5-azaspiro[2,5]octane-5-yl)-1-cyclopropyl-6,8-difluoro-1,4-dihydro-4-oxoquinoline-3-carboxylic acid] | 3.12 (≈ 8.03 µM) | 3.12 (≈ 8.03 µM) | 0.013 (≈ 0.0334 µM) | 0.098 (≈ 0.252 µM) | 0.098 (≈ 0.252 µM) | 0.098 (≈ 0.252 µM) | 0.049 (≈ 0.126 µM) | 0.049 (≈ 0.126 µM) | 0.391 (≈ 1 µM) | 0.098 (≈ 0.252 µM) | 0.098 (≈ 0.252 µM) | 0.391 (≈ 1 µM) | 1.56 (≈ 4.01 µM) | 0.098 (≈ 0.252 µM) | 0.049 (≈ 0.126 µM) | 0.049 (≈ 0.126 µM) | 0.781 (≈ 2.01 µM) | 6.25 (≈ 16.1 µM) | 0.781 (≈ 2.01 µM) | 0.195 (≈ 0.501 µM) | 
COc1c(N2CCC3(CC3N)C2)c(F)cc2c(=O)c(C(=O)O)cn(C3CC3)c12 (centres unmarked) [Example 19, 7-(1-amino-5-azaspiro[2,4]heptane-5-yl)-1-cyclopropyl-8-methoxy-6-fluoro-1,4-dihydro-4-oxoquinoline-3-carboxylic acid] | 1.56 (≈ 4.03 µM) | 1.56 (≈ 4.03 µM) | 0.007 (≈ 0.0181 µM) | 0.025 (≈ 0.0645 µM) | 0.049 (≈ 0.126 µM) | 0.098 (≈ 0.253 µM) | 0.025 (≈ 0.0645 µM) | 0.049 (≈ 0.126 µM) | 0.098 (≈ 0.253 µM) | 0.049 (≈ 0.126 µM) | 0.025 (≈ 0.0645 µM) | 0.098 (≈ 0.253 µM) | 0.391 (≈ 1.01 µM) | 0.049 (≈ 0.126 µM) | 0.049 (≈ 0.126 µM) | 0.025 (≈ 0.0645 µM) | 0.195 (≈ 0.503 µM) | 1.56 (≈ 4.03 µM) | 0.391 (≈ 1.01 µM) | 0.049 (≈ 0.126 µM) | 
